Patent publication US12310934B2, “Methods of treatment of spontaneous preterm birth” (The Regents of the University of California, priority 2019, dated 2025)
“Also recorded” adds a separate entry of the source.

Key:
preterm birth = settings: pregnant women, literature studies; cited from earlier work
[1] = test system: LPS-induced fetal wastage in pregnant mice; test: LPS-induced inflammation mouse model of fetal wastage; assay type: in vivo; settings: 3× drug + LPS-100 compared with LPS-100 alone
From the text: FIG. 3A and FIG. 3B depict results from LPS-induced inflammation mouse model of fetal wastage. Circles represent results from independent mouse pregnancies. Error bars represent mean ±SD. Comparisons were made using the Student's two-sided t-test. […] FIG. 3B: The LPS-100 group compared to the P4 positive control group (3×P4+LPS-100) and the lansoprazole treatment group (3×lansoprazole+LPS-100).
Statistical Analysis. Reversal scores were generated for sPTB-drug pairs using a non-parametric, rank-based method based on the Kolgomorov-Smirnov test. Reversal score p-values were obtained by comparing to a distribution of 100,000 random scores and then adjusted via FDR for multiple comparisons. […] To ensure that the significance of the score is specific to the drug in question, for one candidate drug, lansoprazole, we also compared 1,000 random input signatures to the lansoprazole profile. […] For testing the distributions in the mouse model studies, comparisons were made using the 2-tailed Student's t-test and adjusted via FDR for multiple comparisons. A P value less than 0.05 was considered significant.
Inflammation-induced mouse model validation of lansoprazole. Despite having the highest reversal score, cefotaxime shares few protein interactions. Lansoprazole has the next highest reversal score. Moreover, lansoprazole is available over-the-counter, whereas cefotaxime requires a prescription. […]

Clc1ccccc1C(c1ccccc1)(c1ccccc1)n1ccnc1 [clotrimazole]
rate of preterm birth in past studies (preterm birth): significant reduction in the rate of PTB

Nc1nc2ncc(CNc3ccc(C(=O)N[C@@H](CCC(=O)O)C(=O)O)cc3)nc2c(=O)[nH]1 [folic acid]
rate of preterm birth in past studies (preterm birth): possible reduction of preterm birth

Cc1c(OCC(F)(F)F)ccnc1C[S+]([O-])c1nc2ccccc2[nH]1 (stereo not drawn) [lansoprazole]
number of viable fetuses at E12.5 [1]: significantly effective in recovering the number of viable fetuses; also recorded: significantly (P<0.05) increase the number of viable fetuses

CN(C)C(=N)N=C(N)N [metformin]
rate of preterm birth in past studies (preterm birth): reduce the rate of PTB compared with placebo

CC(=O)[C@H]1CC[C@H]2[C@@H]3CCC4=CC(=O)CC[C@]4(C)[C@H]3CC[C@]12C [progesterone]
rate of preterm birth in past studies (preterm birth): effective in reducing the rate of sPTB | number of viable fetuses at E12.5 ([1]; listed as P4): showed some effectiveness at recovering the number of viable fetuses
